Tests used:
[1] = Log P value at pH 7.4; assay type: physicochemical; details: buffer
Mus musculus [2] = organism: Mus musculus; experiment: Ataxia assessment was made immediately prior to NMDA injection using a rotarod measurement; assay type: functional
Mus musculus [3] = experiment: In vivo NMDA antagonism of compound was assessed for its ability to prevent lethality in mice due to injection of NMDA.; assay type: functional
Glutamate NMDA receptor = experiment: Inhibitory concentration of compound required to displace [3H]TCP 1-[ 1-(2-thienyl)cyclohexyl]piperidine in whole rat brain homogenate
Mus musculus [4] = experiment: In vivo NMDA antagonism of compound was assessed for its ability to prevent lethality in mice due to injection of NMDA; assay type: functional

| SMILES | logD [1] | ED50 (Mus musculus [2]) | ED50 (Mus musculus [3]) | IC50 (Glutamate NMDA receptor) | ED50 (Mus musculus [4]) |
| --- | --- | --- | --- | --- | --- |
| c1ccc2c(c1)C[C@H]1CN[C@@]23CCCC[C@@H]13 | -0.1 | 3.2 mg/kg | 3.5 mg/kg | 86 nM |  |
| c1ccc2c(c1)CC[C@@]13CCCC[C@]21NCC3 |  | 3.2 mg/kg |  | 151 nM | 3.5 mg/kg |
| CN1C[C@@H]2Cc3ccccc3[C@]13CCCC[C@@H]23 | 0.94 | 3 mg/kg |  | 137 nM | 1.8 mg/kg |
| CN[C@]12CCCC[C@H]1CCc1ccccc12 | 1.1 | 0.44 mg/kg | 0.54 mg/kg | 14.7 nM |  |
| CN1CC[C@]23CCCC[C@@]12c1ccccc1CC3 | 0.53 | 0.3 mg/kg | 0.72 mg/kg | 16.8 nM |  |
| C[C@]12N[C@H](Cc3ccccc31)c1ccccc12 [DIZOCILPINE] | 2.1 | 0.1 mg/kg | 0.34 mg/kg |  |  |

Reference: ChEMBL document CHEMBL1152111, “Synthesis and biological activity of conformationally constrained 4a-phenanthreneamine derivatives as noncompetitive NMDA antagonists” (Bioorg Med Chem Lett, 1993)
